Consider two compounds from ChEMBL document CHEMBL6178019, “Discovery of CYP1A1 Inhibitors for Host-Directed Therapy against Sepsis” (J Med Chem, 2025).

Structures are written as SMILES. Calls of active or inactive are those of the source. The rule behind the calls is not given here.

One series concerns the target T1, Cytochrome P450 1A1 (Homo sapiens, UniProt P04798).
T1 sequence (P04798 whole entry): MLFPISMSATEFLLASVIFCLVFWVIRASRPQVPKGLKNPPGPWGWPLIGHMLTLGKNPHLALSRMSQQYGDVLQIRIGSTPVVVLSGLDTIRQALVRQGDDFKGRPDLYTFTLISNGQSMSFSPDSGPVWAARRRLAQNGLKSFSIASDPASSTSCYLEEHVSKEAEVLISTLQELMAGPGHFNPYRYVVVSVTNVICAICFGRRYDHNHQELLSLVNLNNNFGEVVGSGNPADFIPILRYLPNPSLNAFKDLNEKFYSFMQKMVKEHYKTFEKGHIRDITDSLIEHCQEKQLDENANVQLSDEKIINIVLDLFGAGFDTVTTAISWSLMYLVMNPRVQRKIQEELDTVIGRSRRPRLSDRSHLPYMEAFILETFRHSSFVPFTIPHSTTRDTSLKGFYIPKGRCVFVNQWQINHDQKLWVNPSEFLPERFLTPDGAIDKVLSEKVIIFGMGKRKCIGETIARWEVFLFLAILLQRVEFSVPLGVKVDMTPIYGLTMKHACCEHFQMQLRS
In words: Inhibition of CYP1A1 in human Caco-2 cells assessed as relative activity by measuring fold change at 5.0 uM incubated for 12 hrs by EROD assay relative to control. To be noted: caco-2, 12 h. In kind it is cell-based.

In a further series the target is T2, CYP1A1 (Mus musculus, UniProt P00184).
T2 sequence (P00184 whole entry): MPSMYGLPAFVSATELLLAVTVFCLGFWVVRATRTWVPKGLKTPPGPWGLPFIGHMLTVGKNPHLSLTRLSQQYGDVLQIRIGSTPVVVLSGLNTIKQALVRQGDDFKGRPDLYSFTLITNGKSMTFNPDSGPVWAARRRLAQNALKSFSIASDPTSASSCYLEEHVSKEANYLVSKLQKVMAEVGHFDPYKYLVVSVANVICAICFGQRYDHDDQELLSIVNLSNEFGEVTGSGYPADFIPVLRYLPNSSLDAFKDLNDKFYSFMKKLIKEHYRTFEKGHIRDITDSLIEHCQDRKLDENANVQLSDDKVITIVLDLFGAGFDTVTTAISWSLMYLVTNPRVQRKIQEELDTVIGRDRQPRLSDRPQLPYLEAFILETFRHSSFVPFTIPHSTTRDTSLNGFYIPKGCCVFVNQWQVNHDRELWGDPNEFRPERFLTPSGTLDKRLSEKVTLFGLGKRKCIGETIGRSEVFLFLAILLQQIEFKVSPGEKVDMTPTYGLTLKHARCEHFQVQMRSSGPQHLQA
In words: Inhibition of CYP1A1 in mouse RAW264.7 cells assessed as relative activity by measuring fold change at 500 nM incubated for 12 hrs by EROD assay relative to control. Type of series: cell-based. To be noted: read-out: FC.

The nature of series [1]: Toxicity in male C57BL/6 mouse assessed as effect on alanine transaminase (ALT) level in serum up to 100 mg/kg, ip measured after 12 hrs. In kind it is organism-based. As to conditions: in vivo.
A short description of series [2]: Toxicity in male C57BL/6 mouse assessed as effect on creatinine level in serum up to 100 mg/kg, ip measured after 12 hrs. Type of series: organism-based. To be noted: in vivo.
The nature of series [3]: Toxicity in male C57BL/6 mouse assessed as change in body weight at 1 to 100 mg/kg, ip measured after 7 days. Type of series: organism-based. To be noted: in vivo, 168 h, dose 1-100 mg/kg, time 7 day.
Series [4] can be described thus: Toxicity in male C57BL/6 mouse assessed as change in fur condition at 1 to 100 mg/kg, ip measured after 7 days. In kind it is organism-based. To be noted: in vivo, 168 h, dose 1-100 mg/kg, time 7 day.
For series [5], the system named is Staphylococcus aureus. In words: Antibacterial activity methicillin-resistant Staphylococcus aureus infected in C57BL/6 mouse model assessed as increase in survival at 25 mg/kg, ip preadministered for 12 hrs followed by bacterial infection and measured after 60 hrs by Kaplan Meier survival analysis. In kind it is functional, organism-based. As to conditions: time 72.0 hrs.

Another series deals with Pseudomonas aeruginosa. In words: Antibacterial activity against Pseudomonas aeruginosa infected in C57BL/6 mouse assessed as increase in survival at 25 mg/kg, ip pretreated for 12 hrs followed by bacterial infection and measured after 60 hrs by Kaplan Meier survival analysis. As to conditions: time 72.0 hrs. Type of series: functional, organism-based.
For series [6], the system named is Staphylococcus aureus. Briefly: Antibacterial activity against methicillin-resistant Staphylococcus aureus infected in C57BL/6 mouse model assessed as reversal of alanine transaminase level in serum at 25 mg/kg, ip administered for 12 hrs by absorbance based microplate reader. In kind it is functional, organism-based.
Series [7] relates to Staphylococcus aureus. Briefly: Antibacterial activity against methicillin-resistant Staphylococcus aureus infected in C57BL/6 mouse model assessed as reversal of aspartate aminotransferase level in serum at 25 mg/kg, ip administered for 12 hrs by absorbance based microplate reader. Type of series: functional, organism-based.
Series [8] has as its system Staphylococcus aureus. Briefly: Antibacterial activity against methicillin-resistant Staphylococcus aureus infected in C57BL/6 mouse model assessed as reversal of creatinine level in serum at 25 mg/kg, ip administered for 12 hrs by absorbance based microplate reader. Type of series: functional, organism-based.
The test system of another series is Mus musculus. Briefly: Effect on CYP1A1 protein expression in C57BL/6 mouse kidney infected with methicillin-resistant Staphylococcus aureus at 25 mg/kg, ip administered for 12 hrs by Western blot analysis. Type of series: functional, organism-based.
The subject of series [9] is RAW264.7. In words: Induction of phagocytosis in mouse RAW264.7 cells assessed as upregulation of CD68 protein level by flow cytometric analysis. In kind it is functional, cell-based.
Series [10] deals with RAW264.7. In words: Induction of phagocytosis in mouse RAW264.7 cells assessed as upregulation of CD204 protein level by flow cytometric analysis. Type of series: functional, cell-based. A general note: A flow cytometer gives signals particle by particle.
Series [11] deals with RAW264.7. Briefly: Induction of phagocytosis in mouse RAW264.7 cells assessed as upregulation of CD32 mRNA expression by qRT-PCR analysis. In kind it is functional, cell-based.
Series [12] relates to Staphylococcus aureus. Briefly: Antibacterial activity against methicillin-resistant Staphylococcus aureus infected in C57BL/6 mouse model assessed as reduction in bacterial dissemination from PLF to blood at 25 mg/kg, ip preadministered for 12 hrs followed by bacterial infection and measured after 24 hrs. Type of series: functional, organism-based. To be noted: time 36.0 hrs.

For series [13], the system named is RAW264.7. Briefly: Induction of phagocytosis in mouse RAW264.7 cells at 5 uM incubated for 12 hrs by flow cytometric analysis. In kind it is functional, cell-based.
The test system of series [14] is RAW264.7. In words: Induction of phagocytosis in zymosan A stimulated mouse RAW264.7 cells assessed as upregulation of CD68 protein level at 5.0 uM incubated for 12 hrs by flow cytometric analysis. Type of series: functional, cell-based.
Series [15] deals with RAW264.7. In words: Induction of phagocytosis in zymosan A stimulated mouse RAW264.7 cells assessed as upregulation of CD204 protein level at 5.0 uM incubated for 12 hrs by flow cytometric analysis. Type of series: functional, cell-based.
In series [16] the test system is RAW264.7. In words: Induction of phagocytosis in zymosan A stimulated mouse RAW264.7 cells assessed as upregulation of CD68 mRNA expression at 5.0 uM incubated for 12 hrs by qRT-PCR analysis. In kind it is functional, cell-based.
Series [17] relates to Staphylococcus aureus. In words: Antibacterial activity against methicillin-resistant Staphylococcus aureus infected in CYP1A1 deficient mouse assessed as bacterial clearance in PLF at 25 mg/kg, ip pretreated for 12 hrs followed by bacterial infection for 24 hrs. Type of series: functional, organism-based. As to conditions: time 36.0 hrs.
Series [18] concerns Staphylococcus aureus. In words: Antibacterial activity against methicillin-resistant Staphylococcus aureus infected in macrophage-depleted mouse assessed as bacterial clearance in PLF at 25 mg/kg, ip pretreated with clodronate liposomes for 48 hrs followed by compound administration for 12 hrs and measured after 24 hrs of bacterial infection. Type of series: functional, organism-based. As to conditions: time 36.0 hrs.

Consider `Cn1cc(/C=C/C(=O)c2ccc3c(c2)n(C)c(=O)n3C)c2ccccc21`, for which the “fold change (FC)” value at Cytochrome P450 1A1 turned out to be 0.09. In addition, the fold induction at 12 h, 0.5 µM at CYP1A1 stood at 0.72. In addition, the Activity result in [1], in [2], in series [3] and in series [4] was “Non-toxic” each time. In addition, the outcome with Staphylococcus aureus [5], in the series with Pseudomonas aeruginosa, with Staphylococcus aureus [6], in the series on Staphylococcus aureus [7], with Staphylococcus aureus [8] and with RAW264.7 [9] was Active. For the same compound, the outcome in the series on RAW264.7 [10], in the series with RAW264.7 [11], in the series with Staphylococcus aureus [12], in the series with RAW264.7 [13], in the series with RAW264.7 [14] and with RAW264.7 [15] was Active. In addition, the result in the series with RAW264.7 [16] was Active. Also, the result with Mus musculus, in the series with Staphylococcus aureus [17] and in the series with Staphylococcus aureus [18] was inactive.

As for `C#Cc1ccccc1/C=C/C(=O)c1ccc2c(c1)n(C)c(=O)n2C`, at Cytochrome P450 1A1, the “fold change (FC)” value came out at 0.01. For the same compound, the fold induction at 12 h, 0.5 µM on CYP1A1 was determined as 0.07. In addition, the Activity result in series [1], in [2], in series [3] and in series [4] was “Non-toxic” throughout. The result in the series on Staphylococcus aureus [5], in the series with Pseudomonas aeruginosa, in the series on Staphylococcus aureus [6], in the series with Staphylococcus aureus [7], in the series with Staphylococcus aureus [8] and in the series on RAW264.7 [9] was Active. The outcome with RAW264.7 [10], in the series on RAW264.7 [11], with Staphylococcus aureus [12], in the series on RAW264.7 [13], with RAW264.7 [14] and in the series with RAW264.7 [15] was Active. Also, the outcome in the series with RAW264.7 [16] was Active. Moreover, the outcome with Mus musculus, in the series with Staphylococcus aureus [17] and in the series with Staphylococcus aureus [18] was inactive.
